Results taken from patent publication US10538802B2, “Polypeptide substrate for the detection of von Williebrand factor cleaving protease ADAMTS13” (IMMUCOR GTI DIAGNOSTICS, INC., priority 2011, dated 2020).
No end group written: not given here.

How the values were obtained:
[1] = Solubility of the SEQ ID NO: 7 polypeptide substrate (working solution centrifuged, pellet observed); assay type: physicochemical
Protocol: 250 .micro.L of working solution is prepared as above. The solution is vortexed vigorously and appears to be in solution. The solution is centrifuged at ˜12,000 g for about 2 minutes. After centrifugation, a very small pink pellet is noted at the bottom of the tube. […] Another tube is prepared as above substituting water for the substrate buffer. This tube is also centrifuged. Once again a pink pellet is observed in the bottom of the tube. The pellet observed in the water solution is noticeably larger than the pellet observed in the substrate buffer solution.

[2] = molecular target: T1, ADAMTS13 (Homo sapiens, UniProt Q76LX8); test: ADAMTS13 activity assay with fluorogenic (FRET) polypeptide substrate and diluted plasma samples; assay type: biochemical; details: for Assigned/Expected % Normal ADAMTS13 Activity Values Based on FRETS-VWF73 Substrate: incubation 30 Minutes
T1 construct: tissue Gen-Probe GTI Diagnostics (ATS-13 kit calibrators, controls and proficiency samples); George King Biomedical Inc. (FACT, A-FACT, B-FACT plasmas) ATS-13; host or cells: plasma
T1 sequence (Q76LX8 75-1427): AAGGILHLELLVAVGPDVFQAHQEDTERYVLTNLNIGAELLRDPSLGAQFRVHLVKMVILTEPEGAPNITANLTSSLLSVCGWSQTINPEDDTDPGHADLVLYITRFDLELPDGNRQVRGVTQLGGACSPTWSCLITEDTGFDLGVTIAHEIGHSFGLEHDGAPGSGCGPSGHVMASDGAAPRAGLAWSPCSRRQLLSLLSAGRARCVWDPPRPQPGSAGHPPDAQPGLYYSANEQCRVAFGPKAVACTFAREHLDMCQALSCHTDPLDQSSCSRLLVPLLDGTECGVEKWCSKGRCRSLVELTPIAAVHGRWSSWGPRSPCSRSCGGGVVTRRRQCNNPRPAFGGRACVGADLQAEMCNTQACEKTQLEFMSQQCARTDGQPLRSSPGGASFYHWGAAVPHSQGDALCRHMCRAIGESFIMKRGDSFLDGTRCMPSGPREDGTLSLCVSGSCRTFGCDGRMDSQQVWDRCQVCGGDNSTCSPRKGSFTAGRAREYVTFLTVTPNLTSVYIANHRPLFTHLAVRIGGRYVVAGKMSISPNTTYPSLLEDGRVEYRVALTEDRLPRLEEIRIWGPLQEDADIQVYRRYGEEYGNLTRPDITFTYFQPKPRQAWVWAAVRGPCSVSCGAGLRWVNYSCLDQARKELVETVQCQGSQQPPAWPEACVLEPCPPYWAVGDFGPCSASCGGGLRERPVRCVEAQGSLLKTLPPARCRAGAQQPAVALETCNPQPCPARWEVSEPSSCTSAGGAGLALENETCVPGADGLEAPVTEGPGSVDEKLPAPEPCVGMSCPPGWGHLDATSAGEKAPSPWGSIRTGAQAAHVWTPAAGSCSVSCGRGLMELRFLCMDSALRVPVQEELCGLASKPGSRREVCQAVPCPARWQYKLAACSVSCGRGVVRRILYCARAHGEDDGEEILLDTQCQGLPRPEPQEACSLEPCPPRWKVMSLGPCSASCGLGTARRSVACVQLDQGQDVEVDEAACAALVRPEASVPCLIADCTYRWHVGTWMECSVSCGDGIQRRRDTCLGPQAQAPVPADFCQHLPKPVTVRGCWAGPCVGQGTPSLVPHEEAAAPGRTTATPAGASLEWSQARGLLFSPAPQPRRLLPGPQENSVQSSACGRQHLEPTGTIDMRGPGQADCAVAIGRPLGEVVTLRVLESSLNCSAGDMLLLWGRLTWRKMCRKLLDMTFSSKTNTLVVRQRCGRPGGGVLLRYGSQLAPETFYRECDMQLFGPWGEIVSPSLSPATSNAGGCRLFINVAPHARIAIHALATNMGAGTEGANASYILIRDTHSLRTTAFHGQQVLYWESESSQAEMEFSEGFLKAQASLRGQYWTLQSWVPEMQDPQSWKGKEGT
Protocol: The procedure in this example was performed substantially as described in Kokame, K., Y. Nobe, Y. Kokubo, A. Okayama, and T. Miyata. 2005. FRETS-VWF73, a first fluorogenic substrate for ADAMTS13 assay. Br. J. Haematol. 129:93-100, but using SEQ ID NO: 1 in place of the 73 amino acid substrate described therein. The FRETS-VWF73 substrate solution was dissolved in 25% dimethyl sulphoxide/water to prepare the 100 microM stock solution. The GTI FRET4 SEQ ID NO: 1 was dissolved in 100% DMSO. Both substrates were diluted to equal concentrations using ATS-13 substrate buffer (Gen-Probe GT1 Diagnostics, Inc., U.S.A., Cat#ATS-13).
Plasma samples were diluted according to the ATS-13 Direction Insert using ATS-13 specimen diluent (Gen-Probe GTI Diagnostics, Inc., U.S.A., Cat# ATS-13). The diluted plasma samples were mixed with the diluted substrate and the fluorescence was read at 0, 5, 10, 15, 20, 30, 45 minutes using a Biotek FLX800 at the appropriate excitation and emission wavelengths for each substrate.
The fluorophore-quencher pair in the SEQ ID NO: 1 polypeptide substrate is FAM-5/TQ 2^Tm (Ex 485±20; Em 528±20; AAT Bioquest, Inc. Sunnyvale, Calif. U.S.A.). The fluorophore and quencher pair of FRETS-VWF73 (Nma/Dnp) described in Kokame has been substituted with FAM-5 and TQ_2 respectively in GTI_FRET4 SEQ ID NO: 1. Furthermore, in the SEQ ID NO: 1 polypeptide the position of the fluorophore (FAM-5) and quencher (TQ_2) has been swapped relative to the position of the fluorophore and quencher of the FRETS-VWF73 construct. Therefore, for GTI_FRET4 SEQ ID NO: 1, attachment of the fluorophore (FAM-5) occurs by substituting asparagine with cystine at position 15. The quencher (TQ_2) was attached by substituting glutamine with lysine at position 4 (FIG. 2 and Table 4).
For this experiment, substrate concentration and fluorescence reader settings determined on the previous experiment are used. The specimens tested (listed in Table 3), include a panel of proficiency samples prepared for use with ATS-13 (Gen-Probe GTI Diagnostics, Inc., U.S.A., Cat# ATS-13) which included samples with normal or deficient ADAMTS13 activity levels. In addition, six Factor Assay ConTrol plasma were used (2 FACT, 2 A-FACT and 2 B-FACT, from George King Biomedical Inc., Kansas, USA). The assays for the SEQ ID NO: 1 substrate and for the prior art FRETS-VWF73 assay were performed generally as according to the procedure described in Example 1. Substrate is prepared according to the conditions used for initial testing of the substrate, which prepared the molar amount of SEQ ID NO: 1 polypeptide substrate used in the assay to be equivalent to the molar amount of FRETS-VWF73 used in the prior art. The […] assays were read at 0, 5, 10, 15, 20, 30, 45 minutes.
Testing of substrate for cleavability by ADAMTS13 is determined as is generally described in Example 1. […]

Sequence | solubility in water compared with substrate buffer ([1]; pellet size after centrifugation) | solubility in the working solution as prepared ([1]; substrate buffer, centrifuged ~12,000 g about 2 minutes) | reaction time in the ADAMTS13 assay [2] [min] | trend line of the calibration curve [2] | difference between Calibrator A and E, dynamic range ([2]; Example 2, at 30 minutes) [RFU] | Assigned/Expected % Normal ADAMTS13 Activity Values Based on FRETS-VWF73 Substrate ([2]; sample Calibrator A) [% Normal] | Assigned/Expected % Normal ADAMTS13 Activity Values Based on FRETS-VWF73 Substrate ([2]; sample Calibrator B) [% Normal] | Assigned/Expected % Normal ADAMTS13 Activity Values Based on FRETS-VWF73 Substrate ([2]; sample Calibrator C) [% Normal] | Assigned/Expected % Normal ADAMTS13 Activity Values Based on FRETS-VWF73 Substrate ([2]; sample Calibrator D) [% Normal] | Assigned/Expected % Normal ADAMTS13 Activity Values Based on FRETS-VWF73 Substrate ([2]; sample Calibrator E) [% Normal] | Assigned/Expected % Normal ADAMTS13 Activity Values Based on FRETS-VWF73 Substrate ([2]; sample MON110707) | Assigned/Expected % Normal ADAMTS13 Activity Values Based on FRETS-VWF73 Substrate ([2]; sample Positive Control High) | Assigned/Expected % Normal ADAMTS13 Activity Values Based on FRETS-VWF73 Substrate ([2]; sample Positive Control Low) | Assigned/Expected % Normal ADAMTS13 Activity Values Based on FRETS-VWF73 Substrate ([2]; sample UAMS041609) [% Normal] | Assigned/Expected % Normal ADAMTS13 Activity Values Based on FRETS-VWF73 Substrate ([2]; sample VF) [% Normal]
DREKAPNLVYMVTGCPASDEIKRLPGDIIGWPNAPILIQDFETLPREAPDLVLQR [GTI_FRET5] | less soluble in water than in the buffer | not completely soluble | – | – | – | – | – | – | – | – | – | – | – | – | –
DREQAPNLVYMVTGNPASDEIKRLPGDIQVVPIGVGPNANVOELERIGWPNAPILIQDFLTLPREAPDLVLQR [FRETS-VWF73, reference compound] | – | – | 30 | polynomial | 2500 | 0 | 9 | 34 | 55 | 102 | ~90-100 % Normal | 36-54 % Normal | 6-17 % Normal | ~35 | ~20
